Test results as given in patent US4643734A, “Lactide/caprolactone polymer, method of making the same, composites thereof, and prostheses produced therefrom” (Hexcel Corporation, priority 1983, dated 1987).

Key:
Type in all cases: cell-based
[1] = tested on: Salmonella typhimurium TA 1535; test: Ames plate incorporation assay, TA1535
Protocol: (§1) A Salmonella/mammalian mutagenicity test was performed to determine if a saline extract of the polymer would cause mutagenic changes in histidine dependent mutant strains of Salmonella typhimurium. The method of Ames et al as reported in Methods for Detecting Carcinogens and Mutagens with the Salmonella/Mammalian Mutagenicity Test (1975) was employed.
(§2) Test sample--a polymer, saline (0.85%) extract was prepared by adding 4 grams of sample to 20 ml of saline and autoclaving at 121° C. for one hour.
(§3) Bacterial test strains--four strains of specially constructed histidine mutants of Salmonella typhimurium, TA 98, TA 100, TA 1535 and TA 1537, developed by Dr. B. Ames, University of California, Berkeley were employed.
(§4) Activation system--S-9 Activation Mix is composed mainly of the microsomal fraction from a rat liver homogenate. The S-9 mix was used for the detection of mutagenic properties that require metabolic biotransformation to their active mutagenic form. […]
(§5) Ames plate incorporation assay--the principle technique of the Ames test consists of a plate incorporation assay from which direct revertant colony counts are obtained from the test plates. […] Following a 48 hour incubation period at 30° C., the number of colonies in each test plate are recorded as revertant colonies for comparison with spontaneous revertant rates for each strain.

[2] = tested on: Salmonella typhimurium TA 98; test: Ames plate incorporation assay, TA98
Protocol: as §1, §2, §3, §4, §5

[3] = tested on: Salmonella typhimurium TA 1537; test: Ames plate incorporation assay, TA1537
Protocol: as §1, §2, §3, §4, §5

[4] = tested on: Salmonella typhimurium TA 100; test: Ames plate incorporation assay, TA100
Protocol: as §1, §2, §3
Activation system--S-9 Activation Mix is composed mainly of the microsomal fraction from a rat liver homogenate. The S-9 mix was used for the detection of mutagenic properties that require metabolic biotransformation to their active mutagenic form. S-9 mix employed was Aroclor 1254--induced(Litton Bionetics, Inc., Kensington, Md., Lot #REL 091).
Negative controls--the solvent elution vehicle was test with each bacterial strain to determine the number of spontaneous revertant colonies for each test population.
MDA requires metabolic activation to induce mutagenic results; therefore, it was tested (on strain TA 100 only) with and without S-9 mix to verify the bioactivation properties of the S-9 rat liver preparation.
Ames plate incorporation assay--the principle technique of the Ames test consists of a plate incorporation assay from which direct revertant colony counts are obtained from the test plates. Minimal nutrient agar plates are seeded with both a tester strain population and the test solution suspended together in a semi-solid overlay. Test plates are prepared providing for either the presence or absence of S-9 activation mix supplemented in the overlay. Following a 48 hour incubation period at 30° C., the number of colonies in each test plate are recorded as revertant colonies for comparison with spontaneous revertant rates for each strain.

SMILES	Number of Revertant Colonies (Average of Duplicate Plates) ([1]; TA1535, w/S-9)	Number of Revertant Colonies (Average of Duplicate Plates) ([1]; TA1535, without S-9)	Number of Revertant Colonies (Average of Duplicate Plates) ([2]; TA98, w/S-9)	Number of Revertant Colonies (Average of Duplicate Plates) ([2]; TA98, without S-9)	Number of Revertant Colonies (Average of Duplicate Plates) ([3]; TA1537, w/S-9)	Number of Revertant Colonies (Average of Duplicate Plates) ([3]; TA1537, without S-9)	Number of Revertant Colonies (Average of Duplicate Plates) ([4]; TA100, w/S-9)	Number of Revertant Colonies (Average of Duplicate Plates) ([4]; TA100, without S-9)
CN(C)c1ccc(N=NS(=O)(=O)[O-])cc1.[Na+] [Dexon]	26.5	28.0	430.0	422.0	230.0	216.0	388.5	377.0
Nc1ccc(Cc2ccc(N)cc2)cc1 [MDA, methylene dianiline]	–	–	–	–	–	–	223.0	73.0
